Like-named read-outs stand apart in the source and are kept apart here.
Legend:
[1] = target: T1, rat MCH1 receptor (Rattus norvegicus, UniProt P97639); assay: Binding affinity (Ki) at the rat MCH1 receptor
T1 construct: expressed in transfected cells
Protocol: For binding assays, pellets of transfected cells are suspended in ice-cold buffer (20 mM Tris.HCl, 5 mM EDTA, pH 7.4) and homogenized by sonication for 7 sec. The cell lysates are centrifuged at 200×g for 5 min at 4° C. The supernatants are then centrifuged at 40,000×g for 20 min at 4° C. The resulting pellets are washed once in the homogenization buffer and suspended in binding buffer (see methods for radioligand binding). Protein concentrations are determined by the method of Bradford (1976) using bovine serum albumin as the standard. Binding assays are usually performed immediately, however it is possible to prepare membranes in batch and store frozen in liquid nitrogen for future use.
Binding is performed at 25° C. for 1 hr. Incubations are terminated by rapid vacuum filtration over GF/C glass fiber filters, presoaked in 5% PEI using 50 mM Tris pH 7.4 containing 0.01% triton X-100 as wash buffer.
A methanolic solution of methyl (4S)-3-({[3-(4-[3-(acetylamino)phenyl]-3,6-dihydro-1(2H)pyridinyl)propyl]amino}carbonyl)-4-(3,4-difluorophenyl)-6-(methoxymethyl)-2-oxo-1,2,3,4-tetrahydro-5-pyrimidinecarboxylate was exposed to tritium gas at 1 atmosphere pressure in the presence of 5% palladium on carbon with stirring overnight to give the tritiated methyl (4S)-3-{[(3-{4-[3-(acetylamino)phenyl]-1-piperidinyl}propyl)amino]carbonyl}-4-(3,4-difluorophenyl)-6-(methoxymethyl)-2-oxo-1,2,3,4-tetrahydro-5-pyrimidinecarboxylate ((+)-isomer) After purification by reverse phase HPLC (Hypersil ODS, 4.6×100 mm, methanol:H2O:Et3N 10:90:1 to 100:0:1 in 15 min at 1.0 mL/min, with radiochemical and UV detection), this product was used as a radioligand in the MCH1 binding assays. The same procedure was carried out with H2 gas in place of ^3H2 to afford the non-radioactive version of Compound 10.

[2] = target: T2, human Dopamine D2 receptor (Homo sapiens, UniProt P14416); assay: Binding affinity at the human dopamine D2 receptor; conditions: Table 3c; read-out: hD2 Ki
T2 construct: purchased BioSignal, Inc. (Montreal, Canada)
Text: (§1) Other receptors: Cell membranes expressing human dopamine D1, D2, D4 and rat D3 receptors were purchased through BioSignal, Inc. (Montreal, Canada). Binding assays using the histamine H1 receptor; dopamine receptors; and α1A, α1B, and α2 adrenergic receptors may be carried out according to the procedures described in U.S. Pat. No. 5,780,485, the disclosure of which is hereby incorporated by reference in its entirety into this application. Binding assays using the dopamine D5 receptor may be carried out according to the procedures described in U.S. Pat. No. 5,882,855, the disclosure of which is hereby incorporated by reference in its entirety into this application. Binding assays for the human α1D adrenergic receptor may be carried out according to the procedures described in U.S. Pat. No. 6,156,518, the disclosure of which is hereby incorporated by reference in its entirety into this application.

[3] = target: T3, human Histamine H1 receptor (Homo sapiens, UniProt P35367); assay: Binding affinity at the human histamine H1 receptor; conditions: Table 3c; read-out: hH1 Ki
T3 construct: expressed in transfected cells
Text: as §1

[4] = target: T4, human Alpha-1a Adrenergic receptor (Homo sapiens, UniProt P35348); assay: Binding affinity at the human alpha-1A adrenergic receptor; conditions: Table 3c; read-out: hAlpha-1a Ki
T4 construct: expressed in transfected cells
T4 sequence (P35348 1-466): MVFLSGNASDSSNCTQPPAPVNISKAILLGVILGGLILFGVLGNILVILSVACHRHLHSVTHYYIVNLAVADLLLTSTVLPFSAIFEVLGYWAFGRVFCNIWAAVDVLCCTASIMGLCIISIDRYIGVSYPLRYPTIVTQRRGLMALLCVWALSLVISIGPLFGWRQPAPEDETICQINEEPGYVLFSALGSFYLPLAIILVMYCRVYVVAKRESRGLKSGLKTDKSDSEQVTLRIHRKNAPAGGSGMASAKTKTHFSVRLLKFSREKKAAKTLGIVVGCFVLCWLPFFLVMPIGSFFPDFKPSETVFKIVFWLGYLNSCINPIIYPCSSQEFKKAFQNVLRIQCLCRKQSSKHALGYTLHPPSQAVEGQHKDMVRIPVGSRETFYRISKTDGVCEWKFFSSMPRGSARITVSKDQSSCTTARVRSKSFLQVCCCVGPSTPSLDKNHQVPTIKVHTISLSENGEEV
Text: as §1

[5] = Examples 38-141, read-out: Ki (nM) rMCH1

T3 sequence (P35367 whole entry): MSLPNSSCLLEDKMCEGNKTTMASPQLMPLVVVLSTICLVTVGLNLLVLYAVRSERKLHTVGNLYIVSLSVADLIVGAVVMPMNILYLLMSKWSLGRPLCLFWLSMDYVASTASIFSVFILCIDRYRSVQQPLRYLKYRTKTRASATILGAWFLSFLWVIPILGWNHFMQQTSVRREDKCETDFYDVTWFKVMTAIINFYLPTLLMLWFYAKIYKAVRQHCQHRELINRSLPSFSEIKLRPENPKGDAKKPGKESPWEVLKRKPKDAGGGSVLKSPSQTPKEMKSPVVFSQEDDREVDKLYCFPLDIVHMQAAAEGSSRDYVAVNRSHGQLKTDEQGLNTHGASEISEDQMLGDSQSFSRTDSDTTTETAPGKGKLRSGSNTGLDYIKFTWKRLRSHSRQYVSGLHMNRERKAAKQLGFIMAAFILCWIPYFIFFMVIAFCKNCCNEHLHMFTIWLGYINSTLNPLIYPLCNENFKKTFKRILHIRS
T1 sequence (P97639 whole entry): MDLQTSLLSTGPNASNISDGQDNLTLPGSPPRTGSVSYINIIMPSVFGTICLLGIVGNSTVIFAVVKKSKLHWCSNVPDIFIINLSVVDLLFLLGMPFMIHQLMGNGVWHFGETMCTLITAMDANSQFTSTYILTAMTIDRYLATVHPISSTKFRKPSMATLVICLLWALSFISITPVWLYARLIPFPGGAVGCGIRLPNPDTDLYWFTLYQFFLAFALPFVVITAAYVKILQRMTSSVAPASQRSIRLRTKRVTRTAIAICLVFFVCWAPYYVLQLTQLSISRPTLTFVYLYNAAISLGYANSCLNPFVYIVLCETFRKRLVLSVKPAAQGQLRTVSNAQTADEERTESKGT
T2 sequence (P14416 whole entry): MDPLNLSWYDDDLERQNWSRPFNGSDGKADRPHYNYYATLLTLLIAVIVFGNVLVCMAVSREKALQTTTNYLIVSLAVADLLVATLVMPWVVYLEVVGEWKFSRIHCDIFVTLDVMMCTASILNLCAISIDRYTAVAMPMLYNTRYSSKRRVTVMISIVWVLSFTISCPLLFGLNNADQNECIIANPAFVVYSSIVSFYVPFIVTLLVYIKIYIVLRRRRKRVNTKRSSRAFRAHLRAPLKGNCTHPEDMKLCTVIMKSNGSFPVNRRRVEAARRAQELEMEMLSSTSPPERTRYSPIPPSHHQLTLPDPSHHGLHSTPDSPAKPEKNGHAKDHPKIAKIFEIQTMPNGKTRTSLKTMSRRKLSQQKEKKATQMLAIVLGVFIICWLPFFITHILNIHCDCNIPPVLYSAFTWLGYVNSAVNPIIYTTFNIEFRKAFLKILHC

Row | SMILES | Ki [1, 5] [nM] | Ki ([1]; Table 3c, read-out: rMCH1 Ki) [nM] | Ki [2] [nM] | Ki [3] [nM] | Ki [4] [nM]
1 | COCC(=O)Nc1cccc(C2CCN(CCCNC(=O)N3C(=O)NC(COC)=C(C(=O)OC)[C@@H]3c3ccc(F)c(F)c3)CC2)c1 [Example 39, METHYL (4S)-4-(3,4-DIFLUOROPHENYL)-3-({[3-(4-{3-[(METHOXYACETYL)AMINO]PHENYL}-1-PIPERIDINYL)PROPYL]AMINO}CARBONYL)-6-(METHOXYMETHYL)-2-OXO-1,2,3,4-TETRAHYDRO-5-PYRIMIDINECARBOXYLATE] | 3.33 | 3.33 | 25100 | 5660 | 25.5
2 | COCC1=C(C(=O)OC)[C@H](c2ccc(F)c(F)c2)N(C(=O)NCCCN2CCC(c3cccc(NC(=O)CC(C)(C)C)c3)CC2)C(=O)N1 [Example 40, METHYL (4S)-4-(3,4-DIFLUOROPHENYL)-3-({[3-(4-{3-[(3,3-DIMETHYLBUTANOYL)AMINO]PHENYL}-1-PIPERIDINYL)PROPYL]AMINO}CARBONYL)-6-(METHOXYMETHYL)-2-OXO-1,2,3,4-TETRAHYDRO-5-PYRIMIDINECARBOXYLATE] | 2.72 | 2.72 | 2650 | 7120 | 8.72
3 | CCC(=O)Nc1cccc(C2CCN(CCCNC(=O)N3C(=O)NC(COC)=C(C(=O)OC)[C@@H]3c3ccc(F)c(F)c3)CC2)c1 [Example 41, METHYL (4S)-4-(3,4-DIFLUOROPHENYL)-6-(METHOXYMETHYL)-2-OXO-3-{[(3-{4-[3-(PROPIONYLAMINO)PHENYL]-1-PIPERIDINYL)PROPYL)AMINO]CARBONYL}-1,2,3,4-TETRAHYDRO-5-PYRIMIDINECARBOXYLATE] | 0.04 | 0.04 | 9610 | 4540 | 14.3
4 | COCC1=C(C(=O)OC)[C@H](c2ccc(F)c(F)c2)N(C(=O)NCCCN2CCC(c3cccc(NC(=O)CC(C)C)c3)CC2)C(=O)N1 [Example 42, METHYL (4S)-4-(3,4-DIFLUOROPHENYL)-6-(METHOXYMETHYL)-3-({[3-(4-{3-[(3-METHYLBUTANOYL)AMINO]PHENYL}-1-PIPERIDINYL)PROPYL]AMINO}CARBONYL)-2-OXO-1,2,3,4-TETRAHYDRO-5-PYRIMIDINECARBOXYLATE] | 0.6 | 0.6 | 3270 | 7800 | 10.9
5 | CCCC(=O)Nc1cccc(C2CCN(CCCNC(=O)N3C(=O)NC(COC)=C(C(=O)OC)[C@@H]3c3ccc(F)c(F)c3)CC2)c1 [Example 44, METHYL (4S)-3-{[(3-{4-[3-(BUTYRYLAMINO)PHENYL]-1-PIPERIDINYL}PROPYL)AMINO]CARBONYL}-4-(3,4-DIFLUOROPHENYL)-6-(METHOXYMETHYL)-2-OXO-1,2,3,4-TETRAHYDRO-5-PYRIMIDINECARBOXYLATE] | 0.09 | 0.09 | 3610 | 2590 | 11.4
6 | CCCC(=O)Nc1cccc(C2CCN(CCCNC(=O)C3=C(COC)NC(=O)N[C@@H]3c3ccc(F)c(F)c3)CC2)c1 [Example 45] | 14.7 | 14.7 | > 50000 | 4430 | 6030
7 | CCC(=O)Nc1cccc(C2CCN(CCCNC(=O)C3=C(COC)NC(=O)N[C@@H]3c3ccc(F)c(F)c3)CC2)c1 [Example 46] | 8.16 | 8.16 | > 50000 | 2870 | 2420
8 | COCC1=C(C(=O)NCCCN2CCC(c3cccc(NC(=O)CC(C)C)c3)CC2)[C@@H](c2ccc(F)c(F)c2)NC(=O)N1 [Example 47] | 34.3 | 34.3 | 13500 | 3250 | 553
9 | CCC(C)C(=O)Nc1cccc(C2CCN(CCCNC(=O)C3=C(COC)NC(=O)N[C@@H]3c3ccc(F)c(F)c3)CC2)c1 (stereo partly shown) [Example 48] | 22.1 | 22.1 | > 50000 | 7770 | 16600
10 | COCC1=C(C(=O)NCCCN2CCC(c3cccc(NC(=O)C(C)C)c3)CC2)[C@@H](c2ccc(F)c(F)c2)NC(=O)N1 [Example 50] | 13.7 | 13.7 | 19800 | 7470 | 10400
11 | CC(=O)Nc1cccc(C2CCN(CCCNC(=O)N3C(=O)NC(C)=C(C(C)=O)C3c3cc(F)c(F)c(F)c3)CC2)c1 (stereo not shown) [Example 51] | 0.79 | 0.79 | 6640 | 1230 | 10.1
12 | CCC1=C(C(=O)OCc2ccccc2)C(c2ccc(F)cc2F)N(C(=O)NCCCN2CCC(c3cccc(NC(C)=O)c3)CC2)C(=O)N1 (stereo not shown) [Example 52, BENZYL 3-{[(3-{4-[3-(ACETYLAMINO)PHENYL]-1-PIPERIDINYL}PROPYL)AMINO]CARBONYL}-4-(2,4-DIFLUOROPHENYL)-6-ETHYL-2-OXO-1,2,3,4-TETRAHYDRO-5-PYRIMIDINECARBOXYLATE] | 0.81 | 0.81 | 166 | 1430 | 200
13 | CC(=O)Nc1cccc(C2CCN(CCCNC(=O)N3C(=O)NC4=C(C(=O)OC4)C3c3ccc4c(c3)OCO4)CC2)c1 (stereo not shown) [Example 53] | 50.8 | 50.8 | 3450 | 10400 | 2310
14 | COC(=O)C1=C(C)N=C(SCc2ccc(OC)cc2)N(C(=O)NCCCN2CCC(c3cccc(NC(C)=O)c3)CC2)C1c1ccc([N+](=O)[O-])cc1 (stereo not shown) [Example 54, METHYL 1-{[(3-{4-[3-(ACETYLAMINO)PHENYL]-1-PIPERIDINYL}PROPYL)AMINO]CARBONYL}-2-[(4-METHOXYBENZYL)SULFANYL]-4-METHYL-6-(4-NITROPHENYL)-1,6-DIHYDRO-5-PYRIMIDINECARBOXYLATE] | 29.9 | 29.9 | 23000 | 11400 | 11100
15 | COC(=O)C1=C(C)NC(=O)N(C(=O)NCCCN2CCC(c3cccc(NC(C)=O)c3)CC2)[C@H]1c1ccc(F)c(F)c1 [Example 56, METHYL (4S)-3-{[(3-{4[3-(ACETYLAMINO)PHENYL]-1-PIPERIDINYL}PROPYL)AMINO]CARBONYL}-4-(3,4-DIFLUOROPHENYL)-6-METHYL-2-OXO-1,2,3,4-TETRAHYDRO-5-PYRIMIDINECARBOXYLATE] | 0.26 | 0.26 | 10400 | 7230 | 305
16 | CC(=O)Nc1cccc(C2CCN(CCCC(=O)c3ccc(C)c(C)c3)CC2)c1 [Example 57] | 90 | 90 | 6090 | 823 | 49
17 | COc1cccc(CC(=O)Nc2cccc(C3CCN(CCCC(=O)c4ccc(C)c(C)c4)CC3)c2)c1 [Example 61] | 14.2 | 14.2 | 1140 | 1620 | 9.1
18 | CC(=O)Nc1cccc(C2CCN(CCCC(=O)c3ccc(Cl)cc3)CC2)c1 [Example 65] | 69 | 69 | 1430 | 1730 | 26.4
19 | O=C(Cc1ccccc1)Nc1cccc(C2CCN(CCCC(=O)c3ccc(Cl)cc3)CC2)c1 [Example 68] | 84 | 84 | 771 | 571 | 57
20 | COc1ccc(C(=O)CCCN2CCC(c3cccc(NC(=O)C(C)C)c3)CC2)c(OC)c1 [Example 78] | 52 | 52 | 5180 | 2280 | 284
